According to the supplement of paper PMC10307832:

Key:
Experiment in all cases: relative viability (nuclei count vs DMSO), 5 days (fraction); higher = more cells survive
[1] = compound: C1COCCN1C2=NC(=NC3=C2OC4=C3C=CC=N4)C5=CC(=CC=C5)NC(=O)C6=CN=C(C=C6)N + O=C(CCCCCCC(=O)Nc1ccccc1)NO [Vorinostat] (partner 1 µM)
How it was run: (§1)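 Lung cancer cell lines in 1536-well plates got either a single drug or a fixed anchor-drug dose together with five library-drug doses (not always all listed) in √10 steps, by pin tool, on the day after seeding. Nuclei were counted after 5 days, and relative viability is the treated-to-vehicle ratio of nuclei counts. Values are medians of duplicate plates.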

SGI-1776 + Linsitinib = compound: CN1CCC(CNc2ccc3ncc(-c4cccc(OC(F)(F)F)c4)n3n2)CC1 [SGI-1776] + C[C@]1(O)C[C@@H](c2nc(-c3ccc4ccc(-c5ccccc5)nc4c3)c3c(N)nccn32)C1 [Linsitinib] (partner 1 µM)
How it was run: as §1

Entinostat + Phenformin = compound: Nc1ccccc1NC(=O)c1ccc(CNC(=O)OCc2cccnc2)cc1 [Entinostat] + N=C(N)NC(=N)NCCc1ccccc1 [Phenformin] (partner 250 µM)
How it was run: as §1

[2] = compound: C1COCCN1C2=NC(=NC3=C2OC4=C3C=CC=N4)C5=CC(=CC=C5)NC(=O)C6=CN=C(C=C6)N + Cc1cc(Nc2cc(N3CCN(C)CC3)nc(Sc3ccc(NC(=O)C4CC4)cc3)n2)n[nH]1 [Tozasertib] (partner 0.1 µM)
How it was run: as §1

Row | Cell Line | relative viability ([1]; first compound 0.02 µM) | relative viability ([1]; first compound 0.06325 µM) | relative viability ([1]; first compound 0.2 µM) | relative viability ([1]; first compound 0.6325 µM) | relative viability ([1]; first compound 2 µM) | relative viability (SGI-1776 + Linsitinib; first compound 0.08 µM) | relative viability (SGI-1776 + Linsitinib; first compound 0.8 µM) | relative viability (SGI-1776 + Linsitinib; first compound 2.53 µM) | relative viability (SGI-1776 + Linsitinib; first compound 8 µM) | relative viability (Entinostat + Phenformin; first compound 0.02 µM) | relative viability (Entinostat + Phenformin; first compound 0.06325 µM) | relative viability (Entinostat + Phenformin; first compound 0.2 µM) | relative viability (Entinostat + Phenformin; first compound 0.6325 µM) | relative viability (Entinostat + Phenformin; first compound 2 µM) | relative viability ([2]; first compound 0.02 µM) | relative viability ([2]; first compound 0.06325 µM) | relative viability ([2]; first compound 0.2 µM) | relative viability ([2]; first compound 0.6325 µM) | relative viability ([2]; first compound 2 µM)
1 | 201T | 0.964 | 1.03 | 0.931 | 0.94 | 0.769 | 1.05 | 1.01 | 0.968 | 0.87 | 0.46 | 0.414 | 0.451 | 0.382 | 0.303 | 0.959 | 1.04 | 0.915 | 0.913 | 0.452
2 | A549 | – | – | – | – | – | 0.672 | 0.574 | 0.518 | 0.48 | 0.166 | 0.207 | 0.197 | 0.169 | 0.101 | – | – | – | – | –
3 | A-427 | 0.831 | 0.904 | 0.855 | 0.838 | 0.798 | 1.13 | 1.19 | 1.16 | 1.07 | 0.365 | 0.327 | 0.368 | 0.318 | 0.266 | 0.187 | 0.225 | 0.199 | 0.175 | 0.219
4 | ABC-1 | 1.1 | 0.976 | 0.81 | 1.22 | 0.789 | 0.745 | 0.895 | 0.883 | 0.742 | 0.215 | 0.267 | 0.263 | 0.268 | 0.215 | 0.177 | 0.183 | 0.167 | 0.406 | 0.222
5 | BEN | 0.545 | 0.556 | 0.589 | 0.619 | 0.448 | 0.931 | 0.789 | 0.796 | 0.646 | 0.247 | 0.267 | 0.258 | 0.238 | 0.254 | 0.593 | 0.444 | 0.488 | 0.513 | 0.386
6 | CAL-12T | 0.789 | 1 | 0.769 | 0.601 | 0.431 | 0.916 | 0.821 | 0.821 | 0.756 | 0.649 | 0.581 | 0.593 | 0.523 | 0.325 | 0.325 | 0.27 | 0.206 | 0.24 | 0.177
7 | COR-L23 | 0.517 | 0.525 | 0.458 | 0.403 | 0.381 | 0.886 | 0.965 | 0.864 | 0.668 | 0.433 | 0.429 | 0.389 | 0.245 | 0.144 | 0.219 | 0.223 | 0.143 | 0.181 | 0.159
8 | COR-L 105 | 0.787 | 0.839 | 0.701 | 0.768 | 0.603 | 1.1 | 0.927 | 0.874 | 0.717 | 0.499 | 0.561 | 0.45 | 0.411 | 0.23 | 0.325 | 0.352 | 0.329 | 0.359 | 0.31
9 | Calu-6 | – | – | – | – | – | 1.07 | 0.986 | 0.997 | 0.818 | – | – | – | – | – | – | – | – | – | –
10 | ChaGo-K-1 | 0.746 | 0.829 | 0.73 | 0.67 | 0.515 | – | – | – | – | 0.607 | 0.471 | 0.567 | 0.456 | 0.462 | 0.217 | 0.23 | 0.197 | 0.228 | 0.224
